Experimental data published in patent US12297164B2, “Benzidine compound and application thereof” (Guangzhou IMD therapeutics Co., Ltd., priority 2019, dated 2025).
Read-outs that look alike come from different tables or passages of the source.

Assays:
[1] = tested on: A549 (non-small cell lung cancer); test: Cell-Titer GLO cell inhibition; format: cell-based
Experimental: (§1) Experimental materials: fluorescence signal detection instrument: EnSpire Alpha 2390 multifunctional microplate reader (produced by Perkin Elmer Company); 384-well bottom permeable microwell plate; Cell-Titer GLO luminescent reagent; cancer cells to be tested; medium and fetal bovine serum required for cell culture.
(§2) […]. After incubation with the compound for 72 to 144 hours, Cell-Titer GLO reagent 25-T was added to each well, and the plate was shaken for 20 minutes to lyse the cells. After incubation for 10 minutes, the cells were centrifuged for 1 minute, the signal value of luminescence 384 was measured. The inhibition curve was fitted by GraphPad Prism software to obtain IC50.

[2] = tested on: HL-7702 (liver epithelial cells); test: Cell-Titer GLO cell inhibition; format: cell-based; conditions: Homo sapiens, L02
Experimental: as §1, §2

[3] = tested on: 293T (human renal epithelial cell line transfected with adenovirus E1A gene, expressing SV40 large T antigen); test: Cell-Titer GLO cell inhibition; format: cell-based
Experimental: as §1, §2

[4] = tested on: VcaP (AR-positive prostate cancer); test: Cell-Titer GLO cell inhibition; format: cell-based
Experimental: as §1, §2

[5] = tested on: MDA-MB-231 (triple negative breast cancer); test: Cell-Titer GLO cell inhibition; format: cell-based; conditions: Homo sapiens
Experimental: as §1, §2

[6] = tested on: H1975 (lung cancer cells); test: Cell-Titer GLO cell inhibition; format: cell-based
Experimental: as §1, §2

[7] = tested on: MCF-7 (ER + breast cancer); test: Cell-Titer GLO cell inhibition; format: cell-based
Experimental: as §1, §2

[8] = tested on: MV-4-11 (acute leukemia); test: Cell-Titer GLO cell inhibition; format: cell-based
Experimental: as §1, §2

[9] = tested on: Hs578T (triple negative breast cancer); test: Cell-Titer GLO cell inhibition; format: cell-based
Experimental: as §1, §2

[10] = tested on: Cos7 (African green monkey kidney cells); test: Cell-Titer GLO cell inhibition; format: cell-based
Experimental: as §1, §2

[11] = tested on: U2OS (osteosarcoma); test: Cell-Titer GLO cell inhibition; format: cell-based
Experimental: as §1, §2

[12] = tested on: HT-29 (colon cancer); test: Cell-Titer GLO cell inhibition; format: cell-based
Experimental: as §1, §2

[13] = tested on: Hela (cervical cancer cells); test: Cell-Titer GLO cell inhibition; format: cell-based; conditions: Homo sapiens
Experimental: as §1, §2

[14] = tested on: HFL-1 (lung fibroblasts); test: Cell-Titer GLO cell inhibition; format: cell-based
Experimental: as §1, §2

[15] = target: T1, RORγ (Homo sapiens (Human), UniProt P51449); test: TSA detection (thermal shift); format: binding; conditions: protein 10 μM
Experimental: Experimental materials: hRORγ protein, fluorescent dye Sypro Orange, 10p buffer, ultrapure water, and HSP-96 well reaction plates.
Experimental method: The diluted protein (with the final concentration of 10 μM), fluorescent dye (with the final concentration of 5×), 10× TSA buffer, and double distilled water were prepared into a mixed solution with final component volumes of 1 μL, 1 μL, 1 μL, and 2 μL, receptively. The mixed solution was transferred to an HSP-96 well reaction plate, 5 μL each well. The ligand, i.e., small molecule compound, was added, 5 μL per well, with the final concentration of 200 µM. The mixture was centrifuged at room temperature at 1000 rpm for 1 minute to make the system fully mixed. The mixture was placed on an ice bath in low light for more than 30 minutes, and after that, put into RT-PCR instrument for testing. The temperature was set from 30° C. to 80° C., and the mixture was detected every time the temperature was raised by 0.5° C. and every 5 seconds.
Target sequence in this assay (P51449 whole entry): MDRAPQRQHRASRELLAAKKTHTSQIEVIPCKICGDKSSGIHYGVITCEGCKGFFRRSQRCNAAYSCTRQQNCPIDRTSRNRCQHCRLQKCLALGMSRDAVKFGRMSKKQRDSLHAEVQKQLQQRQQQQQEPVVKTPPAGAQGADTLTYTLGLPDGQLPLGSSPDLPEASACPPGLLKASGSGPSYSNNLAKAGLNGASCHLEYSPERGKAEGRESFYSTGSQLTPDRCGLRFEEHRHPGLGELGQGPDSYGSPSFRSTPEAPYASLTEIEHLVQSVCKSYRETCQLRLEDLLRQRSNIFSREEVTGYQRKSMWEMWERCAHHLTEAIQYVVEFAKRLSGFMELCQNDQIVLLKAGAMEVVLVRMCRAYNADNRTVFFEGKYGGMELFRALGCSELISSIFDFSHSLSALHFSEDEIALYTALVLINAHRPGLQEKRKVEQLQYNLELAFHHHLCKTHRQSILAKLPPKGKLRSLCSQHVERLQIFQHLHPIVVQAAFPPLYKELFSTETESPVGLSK

[16] = target: T1, RORγ; test: Specificity luciferase reporter assay in 293T cells, RORγ; conditions: read-out: IC50 RORγ, reporter gene
Target sequence in this assay (P51449 269-508): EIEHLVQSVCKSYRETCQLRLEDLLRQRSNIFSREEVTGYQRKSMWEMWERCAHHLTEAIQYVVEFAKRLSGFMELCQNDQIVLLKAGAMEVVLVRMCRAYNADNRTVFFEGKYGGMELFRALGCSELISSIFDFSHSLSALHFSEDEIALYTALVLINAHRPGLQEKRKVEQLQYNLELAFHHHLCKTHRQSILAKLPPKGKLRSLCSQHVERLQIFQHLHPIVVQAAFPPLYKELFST
Experimental: The cells were cultured in a 96-well plate one day before transfection, with a cell density of 1.5×10^4 cells/well. After 24 hours of adherent growth, the cells were subjected to transient transfection by using the method of double reporter gene co-transfection with the transfection reagent of Lipo-fectamine 2000, and the transfection reagent and plasmids were diluted with Opti-MEM reagent, respectively. Gal4-RORγLBD was 25 ng per well; PG5-luc gene was 25 ng per well; and Renilla was 5 ng per well. After 24 hours of co-transfection, different concentrations of compounds were added. After 24 hours of incubation, Luciferase double reporter gene detection kit was used to detect luminescence signals. Each sample had 3 duplicate wells. The IC50 value (half inhibitory concentration) was calculated by software.

[17] = target: T1, RORγ; test: Luciferase double reporter gene assay (Gal4-RORγLBD) in 293T cells; format: cell-based; conditions: 24 hours of incubation
Experimental: (§3) The cells were cultured in a 96-well plate one day before transfection, with a cell density of 1.5×10^4 cells/well. After 24 hours of adherent growth, the cells were subjected to transient transfection by using the method of double reporter gene co-transfection with the transfection reagent of Lipo-fectamine 2000, where the transfection reagent and plasmids were diluted with Opti-MEM reagent, respectively. […] Each sample had 3 duplicate wells.
Target sequence in this assay (P51449 269-508): as above

[18] = target: T1, RORγ; test: AlphaScreen inhibitory activity on RORγ protein; format: biochemical; conditions: RORγ 200 nM, bSRC1-4 50 nM
Experimental: Experimental materials: target protein RORγ with the final concentration of 200 nM; experimental buffer (10×) MOPS (500 mM) PH 7.4, CHAPS (0.5 mM), NaF (500 mM), and
The mixture was centrifuged at room temperature at 1000 rpm for 1 minute to make the system fully mixed. After being wrapped in tin foil, the mixture was incubated in the dark for 1.5 hours.
Target sequence in this assay (P51449 whole entry): as the sequence (P51449 whole entry) above

[19] = target: T1, RORγ; test: ITC binding activity; conditions: read-out: Kd ITC, 25° C., pH 7.5
Target sequence in this assay (P51449 whole entry): as above

[20] = Pharmacokinetics in SD rats; conditions: for F: oral administration 10 mg/kg vs intravenous 2 mg/kg
Experimental: MATERIALS: Pharmacokinetic analysis was performed by Medicilon Corporation in Shanghai. Twelve Sprague and Dawley rats were provided by Super-B&K laboratory animal Corp. Ltd in Shanghai.
Experimental method: The compound was dissolved in DMSO:PEG 400:20% HP-400 (5:40:55, v:v:v) to serve as a stock solution (0.4 mg/ml, intravenous injection; 1 mg/ml, oral administration). The stock solution was administrated orally to three SD rats at a dose of 10 mg/kg, and administrated intravenously to three SD rats at a single dose of 2 mg/kg. Blood was collected from the jugular vein before oral administration and at 0.25, 0.5, 1, 2, 4, 6, 8, and 24 hours after oral administration. Blood was collected from the jugular vein before intravenous injection and at 0.083, 0.25, 0.5, 1, 2, 4, 6, 8, and 24 hours after intravenous injection. About 200 μL of blood sample was collected into a heparinized tube and immediately centrifuged at 8000 rpm for 6 minutes, and the resulting plasma was stored at −80° C. until analysis.

[21] = tested on: PC-3 (AR-negative prostate cancer); test: Cell-Titer GLO cell inhibition; format: cell-based
Excerpt: (§4) The inhibition curve was fitted by GraphPad Prism software to obtain IC50.

[22] = tested on: Du145 (AR-negative prostate cancer); test: Cell-Titer GLO cell inhibition; format: cell-based
Excerpt: as §4

[23] = tested on: 22Rv1 (AR-positive prostate cancer); test: Cell-Titer GLO cell inhibition; format: cell-based; conditions: Homo sapiens
Excerpt: as §4

[24] = target: RORα (Homo sapiens (Human), UniProt P35398); test: Specificity luciferase reporter assay in 293T cells, RORα; format: cell-based; conditions: reporter gene
Chain of RORα (P35398 whole entry): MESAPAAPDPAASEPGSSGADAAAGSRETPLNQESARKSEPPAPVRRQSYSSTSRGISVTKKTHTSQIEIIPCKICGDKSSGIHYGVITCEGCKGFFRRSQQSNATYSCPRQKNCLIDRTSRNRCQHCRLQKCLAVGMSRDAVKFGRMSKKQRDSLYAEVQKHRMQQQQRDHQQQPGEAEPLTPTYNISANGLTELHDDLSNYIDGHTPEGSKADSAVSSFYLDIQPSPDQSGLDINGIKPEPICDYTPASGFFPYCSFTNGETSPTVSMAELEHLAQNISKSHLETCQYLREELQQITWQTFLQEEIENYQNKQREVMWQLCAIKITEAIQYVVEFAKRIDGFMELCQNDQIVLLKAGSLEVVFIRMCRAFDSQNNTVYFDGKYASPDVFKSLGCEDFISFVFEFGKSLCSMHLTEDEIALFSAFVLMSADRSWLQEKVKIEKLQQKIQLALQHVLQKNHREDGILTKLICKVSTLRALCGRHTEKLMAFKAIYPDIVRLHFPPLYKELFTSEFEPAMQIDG
Experimental: as §3, with “and” for “where”

[25] = tested on: C4-2B (AR-positive prostate cancer); test: Cell-Titer GLO cell inhibition; format: cell-based; conditions: 72 to 144 hours
Excerpt: as §4

[26] = SD rats, intravenous injection, 2 mg/kg
[27] = Sprague-Dawley, rat, in vivo, iv, 2 mg/kg
[28] = Sprague-Dawley, rat, in vivo, po, 10 mg/kg

## CS(=O)(=O)c1ccc(CC(=O)Nc2ccc(-c3ccc(C(O)(C(F)(F)F)C(F)(F)F)cc3F)cc2)cc1 [Example 1, N-(2′-fluoro-4′-(1,1,1,3,3,3-hexafluoro-2-hydroxypropan-2-yl)-[1,1′-biphenyl]-4-yl)-2-(4-(methylsulfonyl)phenyl)acetamide]
[1]; Homo sapiens
  IC50: 22 µM
[2]
  IC50: ~34.6 µM
[3]; Homo sapiens, HEK-293T, 293T, ~ = estimate, read-out: IC50
  IC50: 15.3 µM
[4]; Homo sapiens, VCaP
  IC50: 12.8 µM
[5]
  IC50: ~34.7 µM
[6]; Homo sapiens, NCI-H1975
  IC50: 24 µM
[7]; Homo sapiens, MCF7
  IC50: 13.3 µM
[8]; Homo sapiens, MV4-11
  IC50: 4.82 µM
[9]; Homo sapiens, Hs-578T
  IC50: 18.4 µM
[10]; Chlorocebus sabaeus, COS-7
  IC50: 40 µM
[11]; Homo sapiens
  IC50: 34.5 µM
[12]; Homo sapiens
  IC50: 14.6 µM
[13]
  IC50: 31.4 µM
[14]; Homo sapiens, HFL1
  IC50: 30 µM
[15]
  ΔTm: 7.8 °C
[16]
  IC50: 0.12 ± 0.03 µM
[17]
  IC50: 0.12 µM
[18]
  IC50: 2.28 ± 0.05 µM
[19]
  Kd: 0.56 µM
[20]; [26]
  Cl: 3.2288 ± 0.2047 mL/min/kg
  Vz: 3.54 ± 0.271 L/kg
[20]; SD rats
  F: 51.91%
[20]; SD rats, oral administration, 10 mg/kg
  Tmax: 5.33 ± 2.31 h
[20]; [27]
  AUC(0-inf): 10400 ± 664 ng·h/mL
  AUC(0-t): 7660 ± 329 ng·h/mL
  Cmax: 980 ± 53.2 ng/mL
  Tmax: 0.08 h
  half-life: 12.7 ± 1.21 h
[20]; [28]
  AUC(0-inf): 24500 ± 5810 ng·h/mL
  AUC(0-t): 21600 ± 3950 ng·h/mL
  Cmax: 1420 ± 161 ng/mL
  half-life: 8.67 ± 0.05 h
[21]
  IC50: 16 µM
[22]; Homo sapiens, DU-145
  IC50: 19.1 µM

## CCS(=O)(=O)c1ccc(CC(=O)Nc2ccc(-c3ccc(C(O)(C(F)(F)F)C(F)(F)F)cc3F)cc2)cc1 [Example 2, 2-(4-(ethylsulfonyl)phenyl)-N-(2′-fluoro-4′-(1,1,1,3,3,3-hexafluoro-2-hydroxypropan-2-yl)-[1,1 1,1′-biphenyl]-4-yl)acetamide]
[1]; Homo sapiens
  IC50: 7.08 µM
[2]
  IC50: ~50 µM
[3]; Homo sapiens, HEK-293T
  IC50: 6.22 µM
[4]; Homo sapiens, VCaP
  IC50: 13 µM
[5]
  IC50: ~80 µM
[6]; Homo sapiens, NCI-H1975
  IC50: 16 µM
[7]; Homo sapiens, MCF7
  IC50: 10.5 µM
[8]; Homo sapiens, MV4-11
  IC50: 9.48 µM
[9]; Homo sapiens, Hs-578T
  IC50: 11.9 µM
[10]; Chlorocebus sabaeus, COS-7
  IC50: 29 µM
[11]; Homo sapiens
  IC50: 15.9 µM
[12]; Homo sapiens
  IC50: 6.07 µM
[13]
  IC50: 25.1 µM
[14]; Homo sapiens, HFL1
  IC50: ~31.9 µM
[21]
  IC50: 15 µM
[23]
  IC50: 14.5 ± 1.1 µM
[22]; Homo sapiens, DU-145
  IC50: 11.5 µM

## O=C(Cc1ccc([N+](=O)[O-])cc1)Nc1ccc(-c2ccc(C(O)(C(F)(F)F)C(F)(F)F)cc2F)cc1 [Example 3, N-(2′-fluoro-4′-(1,1,1,3,3,3-hexafluoro-2-hydroxypropan-2-yl)-[1,1′-biphenyl]-4-yl)-2-(4-nitrophenyl)acetamide]
[15]
  ΔTm: 6 °C
[17]
  IC50: 1.49 µM
[18]
  IC50: 4.85 ± 0.04 µM

## O=C(Cc1ccccc1[N+](=O)[O-])Nc1ccc(-c2ccc(C(O)(C(F)(F)F)C(F)(F)F)cc2F)cc1 [Example 4, N-(2′-fluoro-4′-(1,1,1,3,3,3-hexafluoro-2-hydroxypropan-2-yl)-[1,1′-biphenyl]-4-yl)-2-(2-nitrophenyl)acetamide]
[15]
  ΔTm: 4.2 °C
[16]
  IC50: 0.19 ± 0.02 µM
[17]
  IC50: 0.19 µM
[18]
  IC50: 3.46 ± 1.32 µM
[19]
  Kd: 0.78 µM
[20]; [26]
  Cl: 5.4445 ± 1.543 mL/min/kg
  Tmax: 0.19 ± 0.10 h
  Vz: 3.42 ± 0.594 L/kg
[20]; SD rats
  F: 19%
[20]; [27]
  AUC(0-inf): 6440 ± 1720 ng·h/mL
  AUC(0-t): 3330 ± 495 ng·h/mL
  Cmax: 839 ± 38.1 ng/mL
  half-life: 7.67 ± 2.36 h
[20]; [28]
  AUC(0-t): 3220 ± 781 ng·h/mL
  Cmax: 721 ± 120 ng/mL
  Tmax: 8 h
[24]
  inhibitory rate on RORα: 37%
[24]; NA = no inhibitory effect
  IC50: 7.57 ± 0.01 µM

## Nc1ccc(CC(=O)Nc2ccc(-c3ccc(C(O)(C(F)(F)F)C(F)(F)F)cc3F)cc2)cc1 [Example 5, 2-(4-aminophenyl)-N-(2′-fluoro-4′-(1,1,1,3,3,3-hexafluoro-2-hydroxypropan-2-yl)-[1,1′-biphenyl]-4-yl)acetamide]
[15]
  ΔTm: 1.5 °C
[17]
  IC50: 4.16 µM
[18]
  IC50: 2.68 µM

## Nc1ccccc1CC(=O)Nc1ccc(-c2ccc(C(O)(C(F)(F)F)C(F)(F)F)cc2F)cc1 [Example 6, 2-(2-aminophenyl)-N-(2′-fluoro-4′-(1,1,1,3,3,3-hexafluoro-2-hydroxypropan-2-yl)-[1,1′-biphenyl]-4-yl)acetamide]
[15]
  ΔTm: 1.5 °C
[17]
  IC50: 0.96 µM
[18]
  IC50: 5.17 µM

## CCCCC(=O)Nc1ccc(-c2ccc(C(O)(C(F)(F)F)C(F)(F)F)cc2F)cc1 [Example 7]
[15]
  ΔTm: 6.3 °C
[17]
  IC50: 4.17 µM
[18]
  IC50: 10.2 ± 1.61 µM

## OC(c1ccc(-c2ccc(CN3CCN(Cc4ccncc4)CC3)cc2)c(F)c1)(C(F)(F)F)C(F)(F)F [SR2211, reference compound]
[1]
  inhibition rate (value in brackets): 55%
[1]; ~ = estimate, read-out: IC50
  IC50: ~10 µM
[3]; 293T
  inhibition rate (value in brackets): 67%
[3]; 293T, ~ = estimate, read-out: IC50
  IC50: ~80 µM
[4]; VcaP, 72 to 144 hours, read-out: IC50
  IC50: 37.6 µM
[6]; H1975
  inhibition rate (value in brackets): 41%
[6]; H1975, read-out: IC50
  IC50: 30.7 µM
[7]; MCF-7
  inhibition rate (value in brackets): 42%
[7]; MCF-7, ~ = estimate, read-out: IC50
  IC50: ~9.98 µM
[8]; MV-4-11, read-out: IC50
  IC50: 11.5 µM
[9]; Hs578T
  inhibition rate (value in brackets): ~50%
[9]; Hs578T, ~ = estimate, read-out: IC50
  IC50: ~10 µM
[10]; Cos7, read-out: IC50
  IC50: > 100 µM
[11]
  inhibition rate (value in brackets): 52%
[11]; ~ = estimate, read-out: IC50
  IC50: ~10 µM
[12]; read-out: IC50
  IC50: > 50 µM
[14]; HFL-1, ~ = estimate, read-out: IC50
  IC50: > 50 µM
[22]; Du145
  inhibition rate (value in brackets): ~50%
[22]; Du145, 72 to 144 hours, ~ = estimate, read-out: IC50
  IC50: ~10 µM
[25]
  IC50: 10.1 µM
